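1) Cells in 96-well plates. 2) Compound, 48 h, 5 concentrations. 3) Linear interpolation between surrounding doses. 4) Unreached endpoint = highest concentration. GI50: concentration for 50% inhibition of growth. Definition used: TGI = concentration required for complete inhibition of growth.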
Test system: MDA-MB-468 breast
Assay: NCI anticancer screen, dose series, 48 h

O=C(NCc1ccc(Cn2c(=O)sn(-c3ccccc3)c2=O)cc1)OCc1ccc2c(Br)cc(Br)c(O)c2n1
GI50: 500 nM
TGI: 2010 nM

Fc1ccc(Nc2nc3nonc3nc2Nc2ccc(F)cc2)cc1
GI50: 281 nM
TGI: 1460 nM

O=C(/C=C/c1cc([N+](=O)[O-])ccc1Cl)c1ccccc1
GI50: 8460 nM
TGI: 22100 nM

O=[N+]([O-])c1c(Br)sc(Br)c1[N+](=O)[O-]
GI50: 1270 nM
TGI: 2910 nM

COc1cc(/C=C/C(=O)c2ccc(NC(=O)CN3CCN(c4cc5c(cc4F)c(=O)c(C(=O)O)cn5C4CC4)CC3)cc2)cc(OC)c1OC
GI50: 358 nM

CN(C)c1ccc(Nc2cc(-c3cccc(OC(F)(F)F)c3)nc3ccc(N4CCCC4)cc23)cc1
GI50: 2050 nM
TGI: 4380 nM

CN1CCN(c2ccc3nc(-c4ccc5nc(-c6ccc(OCCC(C)(C)C)cc6)[nH]c5c4)[nH]c3c2)CC1
GI50: 1910 nM
TGI: 4130 nM

COc1cc2c(cc1Nc1nc(Nc3ccsc3C(N)=O)c3cc[nH]c3n1)N(C(=O)CN(C)C)CCC2(C)C
GI50: 471 nM
TGI: 2600 nM

CN1c2ccccc2C(C)(C)C12C=Cc1cc(O)ccc1O2 (configuration not stated)
GI50: 3460 nM
TGI: 16700 nM

Cc1ccc2ccc3ccc(C)nc3c2n1.Cc1ccc2ccc3ccc(C)nc3c2n1.Oc1c(Cl)cc(Cl)c2ccc(CN3CCCCC3)nc12.[Ru]
GI50: 248 nM
TGI: 875 nM

Nc1nc(-c2ccccc2)nc(N)c1N=O
GI50: 1750 nM
TGI: 5700 nM

COc1ccc(OC)c(/C=C(/C)[N+](=O)[O-])c1
GI50: 1270 nM
TGI: 2680 nM

NC(=O)c1ccc2nc(-c3ccc(Oc4ccc(Cl)cc4)cc3)[nH]c2c1
GI50: 10500 nM
TGI: 29300 nM

NC(=O)c1cc(-c2ccc(F)cc2)cc(-c2ccncc2)c1N
GI50: 8170 nM
TGI: > 25000 nM

Cc1c(COc2cc(OCc3cccc(C#N)c3)c(CN3C[C@H](O)C[C@@H]3C(=O)O)cc2Cl)cccc1-c1ccc2c(c1)OCCO2
GI50: 6720 nM
TGI: 20500 nM

N#CSCC1CC(O)(c2ccccc2)CC(c2ccc(F)cc2)O1 (configuration not stated)
GI50: 2250 nM
TGI: 7550 nM

Cc1cc(Cl)ccc1NC(=O)c1cc2ccccc2cc1O
GI50: 1780 nM
TGI: 7420 nM

COc1ccc(Cn2cc3c(c2-c2ccc(OC)cc2)CCc2cnoc2-3)cc1
GI50: 254 nM
TGI: 809 nM

CCCCCCCCCCCCCC[n+]1ccc2c(C)c3c(c(C)c2c1)c1cc(O)ccc1n3CC
GI50: 176 nM
TGI: 654 nM

O=C1/C(=C/c2ccc(Cl)cc2)N=C(c2ccccc2)N1CCc1cccs1
GI50: 13700 nM
TGI: 98200 nM

C[C@@H](CO)[C@@H]1CCC=C2CC[C@]3(C)[C@H](CC[C@@H]4[C@@]5(C)CCCNC(C)(C)[C@@H]5CC[C@]43C)[C@H]21
GI50: 1800 nM
TGI: 3400 nM

Cc1cc(N(CCNc2ccnc3cc(Cl)ccc23)Cc2ccco2)nc(Cl)n1
GI50: 1500 nM
TGI: 3070 nM

CC(=Nc1ccccc1)C1=C(O)C(Cc2ccccc2)NC1=O (configuration not stated)
GI50: 17.3 nM
TGI: 50.2 nM

O=C(Nc1ccc2ncnc(Nc3ccc(Oc4cccc(F)c4)c(Cl)c3)c2c1)c1ccc(CNCCO)cc1
GI50: 561 nM
TGI: 2020 nM

COc1cc(Nc2ccnc(NCCCNc3ccnc4cc(Cl)ccc34)n2)cc(OC)c1
GI50: 1490 nM
TGI: 3180 nM

CCNC(=O)c1cc2c(-c3cc(C(C)(C)O)ccc3Oc3c(C)cc(F)cc3C)cn(C)c(=O)c2[nH]1
GI50: 1170 nM
TGI: 7450 nM

COc1ccc(Nc2c3ccccc3nc3ccccc23)cc1
GI50: 547 nM
TGI: 4530 nM

CCC1CCc2nc3sc(C(=O)Nc4cccc(F)c4)c(N)c3cc2C1 (configuration not stated)
GI50: 471 nM
TGI: > 100000 nM

Nc1nc(-c2ccc(F)cc2)c(-c2ccc3ncccc3n2)s1
TGI: > 25000 nM

COc1ccc(-c2nc3ccccn3c2/C=C/C(=O)c2cc(OC)c(OC)c(OC)c2)cc1
GI50: 11900 nM
TGI: 65500 nM

CC[C@@H](C(=O)[C@@H](C)[C@@H](O)[C@H](C)[C@@H]1O[C@@H]([C@@H](CC)C(=O)N(CC)CC)CC[C@@H]1C)C1O[C@]2(C=CC(=O)[C@]3(CC[C@@](C)([C@H]4CC[C@](O)(CC)[C@H](C)O4)O3)O2)[C@H](C)C[C@@H]1C (some centres not stated)
GI50: 943 nM
TGI: 3190 nM

CCCCCCCCCCCC1CCCC(C)N1 (configuration not stated)
GI50: 15500 nM
TGI: 31000 nM

CC(=O)O[C@]1(C(C)=O)CC[C@H]2[C@@H]3C=C(C)C4=CC(=O)CC[C@]4(C)[C@H]3CC[C@@]21C
GI50: 77700 nM
TGI: > 100000 nM

Oc1[nH]c2ccc(Cl)cc2c1/C=c1/ccc2c(c1)N=C(c1ccc(F)cc1)N=2
GI50: 2020 nM
TGI: 3570 nM

CN(CC(=O)N(Cc1ccc(C2CCCCC2)cc1)c1ccc(C(=O)O)c(O)c1)S(=O)(=O)c1c(F)c(F)c(F)c(F)c1F
GI50: 1760 nM
TGI: 3760 nM

Cc1cccc2c(=O)c3c(sc12)c(NCCNCCO)nc1ccccc13
GI50: 1090 nM
TGI: 2500 nM

CC1(C)[C@@H](O[C@@H]2OC[C@@H](O[C@@H]3O[C@H](CO)[C@@H](O)[C@H](O)[C@H]3O[C@@H]3OC[C@@H](O)[C@H](O)[C@H]3O)[C@H](O)[C@H]2O[C@@H]2O[C@H](CO)[C@@H](O)[C@H](O)[C@H]2O)CC[C@]2(C)[C@H]3CC[C@]45OC[C@@]6(CC[C@](C)(C=O)C[C@H]64)[C@H](O)C[C@@]5(C)[C@]3(C)CC[C@@H]12
GI50: 941 nM
TGI: 1960 nM

Source: PubChem BioAssay (NCI)
